pIC50: −log10 of the molar value. Read-outs that look alike come from different tables or passages of the source.
How the values were obtained:
Hepatitis B virus (HBV) = experiment: Secretion of enveloped HBV from Hep G2.2.15 cells, antigen capture/PCR assay; format: cell-based; details: Hep G2.2.15 cells
From the text: Pairs of wells were used for each concentration point.
^2IC 50: The concentration of compound that prevented the secretion of 50% of the amount of HBV detected in the medium from wells containing untreated cultures.

MDBK cells = experiment: Toxicity / cell cytotoxicity in MDBK cells; format: cell-based; details: for % Viability at 10 μM: N-alkyl DNJ at 10 μM; for % Viability at 100 μM: N-alkyl DNJ at 100 μM
[1] = target: T1, ceramide glucosyl transferase (CerGlcT) (Homo sapiens, UniProt Q16739); experiment: Inhibition of ceramide glucosyl transferase / glycolipid synthesis; format: biochemical; details: for pIC50: N-alkyl DNJ derivatives; for Inhibitor of glycolipid synthesis: Yes/No
T1 sequence (Q16739 1-394): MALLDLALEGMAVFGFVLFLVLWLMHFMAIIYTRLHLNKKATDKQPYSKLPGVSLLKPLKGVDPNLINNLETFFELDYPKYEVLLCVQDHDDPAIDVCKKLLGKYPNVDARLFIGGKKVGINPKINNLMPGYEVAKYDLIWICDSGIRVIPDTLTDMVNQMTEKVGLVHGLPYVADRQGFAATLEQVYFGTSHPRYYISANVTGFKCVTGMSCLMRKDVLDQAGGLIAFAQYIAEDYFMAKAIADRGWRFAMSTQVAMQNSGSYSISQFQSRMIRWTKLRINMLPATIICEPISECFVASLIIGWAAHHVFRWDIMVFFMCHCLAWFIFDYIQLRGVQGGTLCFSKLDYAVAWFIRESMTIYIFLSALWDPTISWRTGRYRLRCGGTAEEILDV

α-glucosidase = experiment: Inhibition of α-glucosidase; format: biochemical; details: for pIC50: N-alkyl DNJ derivatives; for Inhibitor of α glucosidase: Yes/No
From the text: The inhibitory activity (IC50) and the cell cytotoxicity (IC50) of various compounds, as well as their effect on α-glucosidase and ceramide glucosyl transferase, are shown in Table 2.

BVDV = BVDV plaque reduction and yield assays in MDBK cells; format: cell-based, bovine viral diarrhea virus; details: for Anti-viral effect on BVDV in MDBK cells: Yes/No
[2] = Toxicity / cell cytotoxicity in MDBK cells; format: cell-based; details: bovine
HBV [3] = experiment: Secreted HBV DNA by Southern blot hybridization; format: cell-based, hepatitis B virus; details: HepG2.2.15 cells, seven days
Method: Secreted DNA analysis: Secreted DNA analysis was performed by the method of Wei et al. (J. Virol. 70:6455-6458, 1996). […] Media containing drug was changed every two days and on the 7th day the media taken and the virus concentrated by pelleting through 20% sucrose for 16 hours (SW 41 rotor, 36,000 RPM). Virus was resuspended in 400 μL of 10 mM TRIS (pH 7.9), 10 mM EDTA (pH 8.0), and 10 mM MgCl2. Samples were split into two 200 μL aliquots and labeled as +Dnase and −Dnase. To both tubes, 15 μl of proteinase K was added to a final concentration of 750 μg/ml for one hour at 37° C. After one hour, 10 pl Dnase was added to the tube labeled +Dnase (final concentration is 50 units/ml) and incubated at 37° C. for one hour. SDS was added to a final concentration of 1% and additional proteinase K added to a final concentration of 500 μg/ml and the reaction allowed to proceed at 37° C. for 3-4 hours. DNA was than purified by phenol/chloroform extraction. DNA was separated on 1% agarose gel and probed with ^32P labeled probes as described (Mehta et al., Proc. Natl. Acad. Sci. USA 94:1822-1827, 1997).
HepG2.2.15 cells were grown for seven days in the absence or presence of NB-DNJ (1000 μg/ml), NN-DNJ (20 μg/ml) or NN-DGJ (20 μg/ml), respectively. After seven days, virus was isolated from these cell cultures, concentrated, and purified. Secreted HBV DNA was detected by Southern blot hybridization. HBV viral DNA from untreated cells was readily detected. The secretion of HBV DNA from treated HepG2.2.15 was also detected.

HBV [4] = experiment: Intracellular HBV DNA in HepG2.2.15 cells by Southern blot; format: cell-based, hepatitis B virus; details: seven days, 3TC 1 μg/ml, NB-DNJ 1000 μg/ml, NN-DNJ and NN-DGJ 2 or 20 μg/ml
Method: Intracellular DNA analysis: Hep G2.2.15 cells were either left untreated or treated with the compounds listed above for seven days and the total DNA extracted as described (Mehta et al., ibid). DNA (20 μg) was digested with HindIII, resolved through a 1.2% agarose gel and transferred to nylon membranes. Membranes were then hybridized with a ^32P labeled probe containing the total HBV genome and developed as described (Lu et al., Proc. Natl. Acad. Sci. USA 94:2380-2385, 1997). The relaxed circular (rc), linear (lin), and closed circular (CCC) DNA were confirmed by enzymatic digestion.
An infected cell contains several forms of HBV DNA which represent different stages in the HBV life cycle. For example, covalently closed circular DNA (CCC DNA) is the nuclear form of the DNA and is thought to be the viral template (Heermann & Gerlich, 1992). In contrast, the relaxed circular DNA (re DNA) and linear forms (lin) are associated with the viral particle and their presence is an indicator of encapsidation of the viral pre-genomic RNA and the subsequent reverse transcription into progeny DNA (Ganem, Curr. Top. Microbiol. Immunol. 168:61-83, 1991). […] The amount of virus associated with the cells was detected seven days later by Southern blot analysis. The locations of the HBV relaxed circular DNA (rcDNA), covalently close circular (CCC) DNA, and single stranded (SS) DNA was identified by relative mobility.

HBV polymerase = target: T2, HBV polymerase (Hepatitis B virus genotype D subtype ayw, UniProt P03156); experiment: Endogenous polymerase assay on purified HBV virions; format: biochemical
T2 construct: HBV virions were purified from the culture medium of untreated cells by ultracentrifugation and the polymerase activity (in the presence of the indicated compounds) tested; expressed in transfected cells; host or cells: Hep G2.2.15 (HepG2 stably transfected with a dimer of the HBV genome); virions pelleted from the culture medium
T2 sequence (P03156 whole entry): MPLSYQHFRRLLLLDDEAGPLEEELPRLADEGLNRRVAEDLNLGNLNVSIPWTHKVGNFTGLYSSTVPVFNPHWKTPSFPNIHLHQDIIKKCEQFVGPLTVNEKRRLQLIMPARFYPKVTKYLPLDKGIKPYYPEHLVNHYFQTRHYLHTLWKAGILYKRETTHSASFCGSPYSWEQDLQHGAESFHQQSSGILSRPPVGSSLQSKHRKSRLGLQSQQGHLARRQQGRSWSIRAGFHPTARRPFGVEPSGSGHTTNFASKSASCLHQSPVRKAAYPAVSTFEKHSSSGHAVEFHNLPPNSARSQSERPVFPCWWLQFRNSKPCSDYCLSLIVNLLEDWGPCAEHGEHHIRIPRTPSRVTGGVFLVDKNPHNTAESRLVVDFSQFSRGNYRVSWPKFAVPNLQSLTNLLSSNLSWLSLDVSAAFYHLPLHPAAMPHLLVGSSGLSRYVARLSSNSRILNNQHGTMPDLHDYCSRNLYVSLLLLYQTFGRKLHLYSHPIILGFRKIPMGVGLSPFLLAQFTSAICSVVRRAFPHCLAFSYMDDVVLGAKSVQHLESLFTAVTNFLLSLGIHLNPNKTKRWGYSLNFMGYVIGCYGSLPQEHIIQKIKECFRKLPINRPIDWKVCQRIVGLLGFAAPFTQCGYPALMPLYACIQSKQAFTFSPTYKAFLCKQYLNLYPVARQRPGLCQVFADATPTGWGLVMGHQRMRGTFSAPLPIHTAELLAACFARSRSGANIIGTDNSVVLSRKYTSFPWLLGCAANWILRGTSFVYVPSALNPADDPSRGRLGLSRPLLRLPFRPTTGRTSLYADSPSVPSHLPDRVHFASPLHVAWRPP
Method: Endogenous polymerase assay: Media containing HBV from Hep G2.2.15 cells was pelleted through 20% sucrose (SW 28 Rotor, 24,000 RPM) for 16 hours and the pellet re-suspended in 50 μl of a mixture containing 50 mM Tris (pH 7.5), 75 mM NH4Cl, 1 mM EDTA, 25 mM MgCl2, 0.1% β-mercaptoethanol, 0.5% NP-40, 0.4 mM each of dATP, dGTP, dTTP and 10 μl of P^32 labeled dCTP. […] DNA was purified by a phenol/chloroform extraction and ethanol precipitation.
HBV DNA replication involves the conversion of a pregenomic RNA (pgRNA) into DNA by the action of the HBV polymerase. Current nucleoside analogue drugs (e.g., 3TC) for treating HBV target this reaction, preventing the formation and secretion of HBV viral DNA. Because the iminosugar N-nonyl-DGJ prevents the formation of HBV rc DNA, it was important to determine whether N-nonyl-DGJ was acting by inhibiting the elongation step of the polymerase. HBV virions from normal and drug treated Hep G2.2.15 cells were purified and the endogenous polymerase activity was measured. HBV virions were purified from the culture medium of untreated cells by ultracentrifugation and the polymerase activity (in the presence of the indicated compounds) tested by the method of Ganem et al. (1998). Briefly, partially purified viral particles were incubated overnight with the indicated concentrations of compound and 10 μCi of ^32P-dCTP. Viral DNA was purified by phenol extraction and ethanol precipitation and resolved on a 1.2% agarose gel. The gel was dried and viral DNA bands detected using a Phospholmager.

[5] = MDBK cells, read-out: Anti-viral effect on BVDV in MDBK cells IC50
[6] = Bovine viral diarrhea virus isolates and strains, MDBK, read-out: Anti-viral effect on BVDV in MDBK cells IC50

Row | Structure (SMILES) | % Viability at 10 μM (MDBK cells) [%] | % Viability at 100 μM (MDBK cells) [%] | pIC50 [1] | Inhibitor of α glucosidase (α-glucosidase) | Anti-viral effect on BVDV in MDBK cells (BVDV) | also measured
1 | Nc1ccn([C@@H]2CS[C@H](CO)O2)c(=O)n1 [3TC, reference compound] |  |  |  |  |  | pIC50 (Hepatitis B virus (HBV); Hepatitis B virus, HepG2.2.15, 216 h, nine days of incubation, read-out: IC 50, secretion of HBV): 5.30
2 | CCCCCCN1C[C@H](O)[C@@H](O)[C@H](O)[C@H]1CO [C6] | 73 | 71 | 4.62 |  |  | 
3 | CCCCCCCCN1C[C@H](O)[C@@H](O)[C@H](O)[C@H]1CO [C8] | 70 | 71 | 4.77 |  |  | 
4 | CCCCCCCCCCN1C[C@H](O)[C@@H](O)[C@H](O)[C@H]1CO [C10] | 73 | 43 | 5.51 |  |  | pIC50 (α-glucosidase): 6.32
5 | CCCCCCCCCCCCN1C[C@H](O)[C@@H](O)[C@H](O)[C@H]1CO [C12] | 86 | 1 | 5.28 |  |  | 
6 | OC[C@H]1NC[C@H](O)[C@@H](O)[C@@H]1O [DNJ, deoxynorjirimycin, reference compound] |  |  |  | Yes | Yes | pIC50 (BVDV; [5]): 4.70
7 | CCOCCCCCCN1C[C@H](O)[C@@H](O)[C@@H](O)[C@H]1C [N-7-oxa-nonyl MeDGJ, N-(7-oxa-nonyl)-1,5,6-trideoxy-1,5-imino-D-galactitol] |  |  |  | No | Yes | CC50 [2]: 2100 µM; Inhibitor of glycolipid synthesis [1]: No; Selectivity index (CC50/IC50) (BVDV; BVDV in MDBK cells): 1400; pIC50 (BVDV; [6]): 5.82
8 | CCCCN1C[C@H](O)[C@@H](O)[C@@H](O)[C@H]1CO [N-butyl DGJ, reference compound] |  |  |  | No | No | 
9 | CCCCN1C[C@H](O)[C@@H](O)[C@H](O)[C@H]1CO [N-butyl DNJ, N-butyl deoxynojiricmycin, reference compound] | 74 | 77 |  | Yes | Yes | CC50 (MDBK cells): > 10000 µM; pIC50 (α-glucosidase): 6.24; pIC50 (BVDV; [5]): 3.92 to 4.22; Decrease of secreted virus DNA (HBV [3]; 1000 μg/ml): about 3 fold; Effect on intracellular HBV DNA (HBV [4]): dramatic increase in the replicative forms of HBV DNA; Effect on HBV polymerase activity (HBV polymerase; 4.52 mM): no effect on polymerase activity
10 | CCCCCCCCCN1C[C@H](O)[C@@H](O)[C@H](O)[C@H]1CO [N-nonyl DNJ, N-nonyl-deoxynojirimycin] | 56 | 41 |  | Yes | Yes | CC50 (MDBK cells): 250 µM; pIC50 (BVDV; [5]): 5.52 to 5.70; pIC50 (Hepatitis B virus (HBV); antigen capture method, read-out: IC50, HBV secretion): ~6.00; pIC50 (Hepatitis B virus (HBV); nine days of incubation, read-out: IC 50, secretion of HBV): 5.40 to 6.40; Decrease of secreted virus DNA (HBV [3]; 20 μg/ml): ~1.5 fold; Effect on intracellular HBV DNA (HBV [4]): did not cause a large increase in intracellular HBV DNA but rather a reduction; Effect on HBV polymerase activity (HBV polymerase; 69 μM): no effect on polymerase activity; TOX 50 (MTT activity reduced to 50%) (Hep G2.2.15 cells): >100 µM
11 | CCCCCCCCCN1C[C@H](O)[C@@H](O)[C@@H](O)[C@H]1C [N-nonyl MeDGJ, N-nonyl-1,5,6-trideoxy-1,5-imino-D-galactitol] |  |  |  | No | Yes | Inhibitor of glycolipid synthesis [1]: No; pIC50 (BVDV; Bovine viral diarrhea virus isolates and strains, MDBK, read-out: IC50, BVDV plaques): > 5.60; pIC50 (BVDV; [6]): 5.52 to 5.70; melting point: 49 to 51 °C

From patent US7816560B1, “Long chain n-alkyl compounds and oxa-derivatives thereof” (Thomas Jefferson University, priority 1999, dated 2010)
